The target of series [1] is T1, Dihydrofolate reductase (Pneumocystis carinii, UniProt P16184).
T1 sequence (P16184 whole entry): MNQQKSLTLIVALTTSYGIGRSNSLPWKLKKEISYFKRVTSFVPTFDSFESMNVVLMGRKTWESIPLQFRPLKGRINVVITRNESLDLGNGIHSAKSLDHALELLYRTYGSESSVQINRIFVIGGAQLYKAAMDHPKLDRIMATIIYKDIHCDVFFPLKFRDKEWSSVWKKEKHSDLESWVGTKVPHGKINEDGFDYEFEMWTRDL

Series [2] deals with T2, Bifunctional dihydrofolate reductase-thymidylate synthase (Toxoplasma gondii, UniProt Q07422).
T2 sequence (Q07422 whole entry): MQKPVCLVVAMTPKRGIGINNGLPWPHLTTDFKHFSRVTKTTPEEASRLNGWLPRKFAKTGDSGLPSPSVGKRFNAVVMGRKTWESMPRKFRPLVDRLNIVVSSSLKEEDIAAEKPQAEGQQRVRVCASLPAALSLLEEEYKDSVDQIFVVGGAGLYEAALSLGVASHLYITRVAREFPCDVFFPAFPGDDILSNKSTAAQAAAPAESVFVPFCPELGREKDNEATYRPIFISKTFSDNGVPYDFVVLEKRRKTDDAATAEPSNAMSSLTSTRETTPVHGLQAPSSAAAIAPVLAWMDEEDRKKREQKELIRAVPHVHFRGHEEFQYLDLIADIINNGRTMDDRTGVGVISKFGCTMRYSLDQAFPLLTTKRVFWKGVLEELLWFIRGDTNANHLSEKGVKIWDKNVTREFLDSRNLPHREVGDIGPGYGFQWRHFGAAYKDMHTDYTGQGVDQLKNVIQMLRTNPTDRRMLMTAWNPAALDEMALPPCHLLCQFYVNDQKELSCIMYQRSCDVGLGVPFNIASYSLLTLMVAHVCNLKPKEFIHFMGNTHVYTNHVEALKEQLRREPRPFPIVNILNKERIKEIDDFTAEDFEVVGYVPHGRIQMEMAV

The nature of series [3]: Ratio of IC50 against rat liver DHFR and Pneumocystis carinii DHFR (IC50rl/IC50pc).
Series [4] deals with T3, Dihydrofolate reductase (Rattus norvegicus, UniProt Q920D2).
T3 sequence (Q920D2 whole entry): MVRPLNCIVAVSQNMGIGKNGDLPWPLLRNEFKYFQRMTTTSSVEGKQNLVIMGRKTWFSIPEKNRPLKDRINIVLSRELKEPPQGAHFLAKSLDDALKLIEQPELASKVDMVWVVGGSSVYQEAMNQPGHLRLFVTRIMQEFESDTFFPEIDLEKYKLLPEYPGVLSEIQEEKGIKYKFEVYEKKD

A short description of series [5]: Ratio of the IC50 against rat liver DHFR and Toxoplasma gondii DHFR (IC50rl/IC50tg).
Another series deals with A253 cell line. The series is described as follows: Growth inhibition of human squamous carcinoma cell lines following continuous (120 hours) exposure to MTX and compound A253 cell line. It is filed as functional, cell-based. The settings on record: A253, 120 h.
The next series has as its system FaDu. The series is described as follows: Growth inhibition of human squamous carcinoma cell lines following continuous (120 hours) exposure to MTX and compound FaDu cell line. It is filed as functional, cell-based.
Series [6] concerns CCRF-CEM. The series is described as follows: Compound was evaluated for the growth inhibition of parental CCRF-CEM. The settings on record: Homo sapiens. The class given is functional, cell-based.
A short description of series [7]: Relative Vmax of compound was measured. The class given is ADME.
Series [8] has as its system CCRF-CEM. The series is described as follows: Compound was evaluated for the growth inhibition of R30dm, a CCRF-CEM subline resistant to intermittent MTX exposure solely as a result of decreased polyglutamylation. It is filed as functional, cell-based. The settings on record: Homo sapiens.
Series [9] deals with CCRF-CEM. The series is described as follows: Compound was evaluated for the growth inhibition of R2, a CCRF-CEM subline resistant to MTX as a result of deffective uptake. The class given is functional, cell-based. The settings on record: Homo sapiens.
Compound in series [10]: Nc1nc(N)c2nc(CNc3ccc(C(=O)N[C@@H](CCC(=O)O)C(=O)O)cc3)cnc2n1
The series is described as follows: Inhibitory activity of compound was measured for CCRF-CEM human leukemia cell Folyl-polyglutamate synthase.

Series [11] deals with Folylpolyglutamate synthase, mitochondrial (Homo sapiens) (UniProt Q05932). The series is described as follows: Inhibitory activity of compound was measured for CCRF-CEM human leukemia cell Folyl-polyglutamate synthase.

The text below walks through data of ChEMBL document CHEMBL1128397, “Novel 2,4-diamino-5-substituted-pyrrolo[2,3-d]pyrimidines as classical and nonclassical antifolate inhibitors of dihydrofolate reductases” (J Med Chem, 1995).

In turn, `CCOc1ccc(OCC)c(NCc2c[nH]c3nc(N)nc(N)c23)c1` displayed an IC50 against Dihydrofolate reductase [1] of 21000 nM.
In the case of `Nc1nc(N)c2c(CNc3cccc4ccccc34)c[nH]c2n1`, the results for the IC50 (in series [2]; against Dihydrofolate reductase [4]; against Dihydrofolate reductase [1]) were 1100 nM, 59300 nM and 307000 nM, respectively. Moreover, the Selectivity ratio in series [3] stood at 0.2; in [5], 53.9.
For the molecule `CN(Cc1cnc2nc(N)nc(N)c2n1)c1ccc(C(=O)N[C@@H](CCC(=O)O)C(=O)O)cc1` [METHOTREXATE], the EC50 was 17 nM in the series with A253 cell line and 31 nM in the series on FaDu.
Consider `Nc1nc(N)c2c(CNc3ccc(C(=O)NC(CCC(=O)O)C(=O)O)cc3)c[nH]c2n1` (stereo not given), for which the EC50 in the series on A253 cell line stood at 46 nM; in the series on CCRF-CEM [6], 12.8 nM; with FaDu, 22 nM; in the series with CCRF-CEM [8], 36 nM; with CCRF-CEM [9], 1650 nM. Also, the IC50 in [2] is 210 nM; at Dihydrofolate reductase [1], 38 nM. Also, in series [7], the Vmax is 0.72.
`Nc1nc(N)c2c(CNc3ccccc3)c[nH]c2n1`: the Selectivity ratio in series [3] was below 1; in series [5], above 65.
Regarding `COc1ccc(NCc2c[nH]c3nc(N)nc(N)c23)cc1`, the IC50 in series [2] is 6000 nM; at Dihydrofolate reductase [4], 63000 nM; at Dihydrofolate reductase [1], 279000 nM. Moreover, the Selectivity ratio in series [3] came out at 0.23; in [5], 10.5.
Regarding `Nc1nc(N)c2nc(CNc3ccc(C(=O)N[C@@H](CCC(=O)O)C(=O)O)cc3)cnc2n1` [AMINOPTERIN], the Vmax in series [7] came to 1.
Regarding `COc1cc(NCc2c[nH]c3nc(N)nc(N)c23)cc(OC)c1OC`, the IC50 in [2] is 8100 nM; on Dihydrofolate reductase [4], 56300 nM; against Dihydrofolate reductase [1], above 23000 nM. Also, the Selectivity ratio in [3] was below 2.4; in series [5] it was 7.
Take `COc1ccc(OC)c(NCc2c[nH]c3nc(N)nc(N)c23)c1`: the results for the IC50 (in series [2]; against Dihydrofolate reductase [4]) were 1700 nM and 156000 nM, respectively. For the same molecule, the Selectivity ratio in series [3] worked out at 3.4; in series [5], 92.

B1: Folylpolyglutamate synthase, mitochondrial (Homo sapiens), Q05932 (protein)
chain: MSRARSHLRAALFLAAASARGITTQVAARRGLSAWPVPQEPSMEYQDAVRMLNTLQTNAGYLEQVKRQRGDPQTQLEAMELYLARSGLQVEDLDRLNIIHVTGTKGKGSTCAFTECILRSYGLKTGFFSSPHLVQVRERIRINGQPISPELFTKYFWRLYHRLEETKDGSCVSMPPYFRFLTLMAFHVFLQEKVDLAVVEVGIGGAYDCTNIIRKPVVCGVSSLGIDHTSLLGDTVEKIAWQKGGIFKQGVPAFTVLQPEGPLAVLRDRAQQISCPLYLCPMLEALEEGGPPLTLGLEGEHQRSNAALALQLAHCWLQRQDRHGAGEPKASRPGLLWQLPLAPVFQPTSHMRLGLRNTEWPGRTQVLRRGPLTWYLDGAHTASSAQACVRWFRQALQGRERPSGGPEVRVLLFNATGDRDPAALLKLLQPCQFDYAVFCPNLTEVSSTGNADQQNFTVTLDQVLLRCLEHQQHWNHLDEEQASPDLWSAPSPEPGGSASLLLAPHPPHTCSASSLVFSCISHALQWISQGRDPIFQPPSPPKGLLTHPVAHSGASILREAAAIHVLVTGSLHLVGGVLKLLEPALSQ
As for B1, the Km in series [10] is 4.3 µM; in series [11], below 1 µM.
